These results are taken from patent US12421207B2 (CMG Pharmaceutical Co., Ltd., priority 2022, dated 2025).

Like-named read-outs stand apart in the source and are kept apart here.

The subject of one experiment is PC9/ER cells. Put plainly: Cell viability assay (CellTiter-Glo 2.0), erlotinib-resistant PC9/ER cells. The format is cell-based. Conditions: Homo sapiens, PC-9/ER, 72 h drug treatment, read-out: Relative cell viability, IC50 PC9ER. The text has this:
(§1) To explore c-MET and AXL mechanisms of EGFR TKI resistance, resistant cells of the EGFR TKI hypersensitive EGFR exon 19 mutant NSCLC cell line, HCC827 and PC9 were generated by exposing these cells to increasing concentrations of EGFR TKI for over 3 months.
(§2) Gefitinib-resistant cells were referred to as HCC827/GR. […] Osimertinib-resistant cells were referred to as HCC827/OR.
In general terms: In ATP-based viability assays light output follows the ATP content of the culture.

A further experiment has as its system HCC827/GR cells. Put plainly: Cell viability assay (CellTiter-Glo 2.0), gefitinib-resistant HCC827/GR cells. The following applies: Homo sapiens, HCC827, 72 h drug treatment, read-out: Relative cell viability, IC50 HCC827GR. It is filed as cell-based, human. Put shortly: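 Gefitinib-resistant HCC827 cells, derived by over 3 months' escalating EGFR TKI exposure, seeded at 1,000 cells/well. Treated 72 h with a 10-point dose range from 1 nM to 10,000 nM. Viability read by CellTiter-Glo 2.0 luminescence.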

Another experiment deals with HCC827/ER cells. Briefly: Cell viability assay (CellTiter-Glo 2.0), erlotinib-resistant HCC827/ER cells. It is filed as cell-based, human. Conditions: Homo sapiens, HCC827ER, read-out: Relative cell viability.
Text: as §1, §2

For another experiment, the system named is HCC827/OR cells. Briefly: Cell viability assay (CellTiter-Glo 2.0), osimertinib-resistant HCC827/OR cells. The format is cell-based, human. The following applies: Homo sapiens, HCC827, 72 h drug treatment, read-out: Relative cell viability, IC50 HCC827OR.
Text: as §1, §2

The mark [1] stands for this setting: Table 4, combinations of EGFR TKIs and inhibitor of Formula (I).
Setting [2] is: Table 4, 72 h drug treatment, combinations of EGFR TKIs and inhibitor of Formula (I).
Setting [3] is: Table 2, EGFR TKI resistant cells, combination with EGFR TKI.
Where [4] appears, read: Table 2, 72 h drug treatment, EGFR TKI resistant cells, combination with EGFR TKI.

`CN1CCN(C(C)(C)C#Cc2c(Oc3ccc(NC(=O)c4cn(CC(=O)N(C)C)c(=O)n(-c5ccc(F)cc5)c4=O)cc3F)ccnc2N)CC1` [Example 36, N-(4-((2-amino-3-(3-methyl-3-(4-methylpiperazin-1-yl)but-1-yn-1-yl)pyridin-4-yl)oxy)-3-fluorophenyl)-1-(2-(dimethylamino)-2-oxoethyl)-3-(4-fluorophenyl)-2,4-dioxo-1,2,3,4-tetrahydropyrimidine-5-carboxamide]: the IC50 with PC9/ER cells (setting [1]), with HCC827/GR cells (setting [1]), in the experiment with HCC827/ER cells (setting [2]) and in the experiment with HCC827/OR cells (setting [1]) was < 10 µM each time.
Regarding `CC(C)n1cc(C(=O)Nc2ccc(Oc3ccnc(N)c3C#CC(=O)N3CCOCC3)c(F)c2)c(=O)n(-c2ccc(F)cc2)c1=O` [Example 14, N-(4-(2-amino-3-(3-morpholino-3-oxoprop-1-ynyl)pyridin-4-yloxy)-3-fluorophenyl)-3-(4-fluorophenyl)-1-isopropyl-2,4-dioxo-1,2,3,4-tetrahydropyrimidine-5-carboxamide], the IC50 in the experiment with PC9/ER cells (setting [3]) is < 0.01 µM; with HCC827/GR cells (setting [3]) it was < 0.1 µM; in the experiment with HCC827/ER cells (setting [4]), < 0.01 µM; in the experiment with HCC827/OR cells (setting [3]), < 0.01 µM.
As to `CN1CCC(CC#Cc2c(Oc3ccc(NC(=O)c4cn(C5CCOCC5)c(=O)n(-c5ccc(F)cc5)c4=O)cc3F)ccnc2N)CC1` [Example 60, N-(4-(2-amino-3-(3-(1-methylpiperidin-4-yl)prop-1-ynyl)pyridin-4-yloxy)-3-fluorophenyl)-3-(4-fluorophenyl)-2,4-dioxo-1-(tetrahydro-2H-pyran-4-yl)-1,2,3,4-tetrahydropyrimidine-5-carboxamide], the IC50 with PC9/ER cells (setting [1]), in the experiment on HCC827/GR cells (setting [1]), with HCC827/ER cells (setting [2]) and in the experiment on HCC827/OR cells (setting [1]) was < 0.1 µM throughout.
Take `CC(C)n1cc(C(=O)Nc2ccc(Oc3ccnc(N)c3C#CC(=O)N3CCNCC3)c(F)c2)c(=O)n(-c2ccc(F)cc2)c1=O` [Example 1, N-(4-(2-amino-3-(3-oxo-3-(piperazin-1-yl)prop-1-ynyl)pyridin-4-yloxy)-3-fluorophenyl)-3-(4-fluorophenyl)-1-isopropyl-2,4-dioxo-1,2,3,4-tetrahydropyrimidine-5-carboxamide]: the IC50 with PC9/ER cells (setting [3]), in the experiment with HCC827/GR cells (setting [3]), in the experiment with HCC827/ER cells (setting [4]) and in the experiment on HCC827/OR cells (setting [3]) was < 0.01 µM throughout.
Take `Cc1nc(Cn2cc(C(=O)Nc3ccc(Oc4ccnc(N)c4C#CC(C)(C)N4CCNCC4)c(F)c3)c(=O)n(-c3ccc(F)cc3)c2=O)cs1` [Example 41, N-(4-((2-amino-3-(3-methyl-3-(piperazin-1-yl)but-1-yn-1-yl)pyridin-4-yl)oxy)-3-fluorophenyl)-3-(4-fluorophenyl)-1-((2-methylthiazol-4-yl)methyl)-2,4-dioxo-1,2,3,4-tetrahydropyrimidine-5-carboxamide]: the IC50 in the experiment on PC9/ER cells (setting [1]), with HCC827/GR cells (setting [1]), with HCC827/ER cells (setting [2]) and in the experiment with HCC827/OR cells (setting [1]) was < 1 µM throughout.
On to `COCCN1CCC(C#Cc2c(Oc3ccc(NC(=O)c4cn(C(C)C)c(=O)n(-c5ccc(F)cc5)c4=O)cc3F)ccnc2N)CC1` [Example 16], for which the IC50 in the experiment on PC9/ER cells (setting [3]), in the experiment on HCC827/GR cells (setting [3]), in the experiment with HCC827/ER cells (setting [4]) and in the experiment on HCC827/OR cells (setting [3]) was < 0.01 µM throughout.
In the case of `CC(C)(C#Cc1c(Oc2ccc(NC(=O)c3cn(C4CCOCC4)c(=O)n(-c4ccc(F)cc4)c3=O)cc2F)ccnc1N)N1CCNCC1` [Example 58, N-(4-(2-amino-3-(3-methyl-3-(piperazin-1-yl)but-1-ynyl)pyridin-4-yloxy)-3-fluorophenyl)-3-(4-fluorophenyl)-2,4-dioxo-1-(tetrahydro-2H-pyran-4-yl)-1,2,3,4-tetrahydropyrimidine-5-carboxamide], the IC50 in the experiment on PC9/ER cells (setting [1]), in the experiment with HCC827/GR cells (setting [1]), with HCC827/ER cells (setting [2]) and in the experiment with HCC827/OR cells (setting [1]) was < 1 µM throughout.
Take `CN1CCC(CC#Cc2c(Oc3ccc(NC(=O)c4nn(C)c(=O)n(-c5ccc(F)cc5)c4=O)cc3F)ccnc2N)CC1` [Example 45, N-(4-((2-amino-3-(3-(1-methylpiperidin-4-yl)prop-1-yn-1-yl)pyridin-4-yl)oxy)-3-fluorophenyl)-4-(4-fluorophenyl)-2-methyl-3,5-dioxo-2,3,4,5-tetrahydro-1,2,4-triazine-6-carboxamide]: the IC50 in the experiment with PC9/ER cells (setting [1]) is < 1 µM; with HCC827/GR cells (setting [1]), < 1 µM; with HCC827/ER cells (setting [2]), < 1 µM; with HCC827/OR cells (setting [1]), < 10 µM.
`COCCN1CCC(CC#Cc2c(Oc3ccc(NC(=O)c4cn(C(C)C)c(=O)n(-c5ccc(F)cc5)c4=O)cc3F)ccnc2N)CC1` [Example 28, N-(4-(2-amino-3-(3-(1-(2-methoxyethyl)piperidin-4-yl)prop-1-ynyl)pyridin-4-yloxy)-3-fluorophenyl)-3-(4-fluorophenyl)-1-isopropyl-2,4-dioxo-1,2,3,4-tetrahydropyrimidine-5-carboxamide]: the IC50 in the experiment on PC9/ER cells (setting [3]), with HCC827/GR cells (setting [3]), with HCC827/ER cells (setting [4]) and in the experiment on HCC827/OR cells (setting [3]) was < 0.01 µM each time.
On to `Cn1nc(C(=O)Nc2ccc(Oc3ccnc(N)c3C#CCC3CCNCC3)c(F)c2)c(=O)n(-c2ccc(F)cc2)c1=O` [Example 46, N-(4-((2-amino-3-(3-(piperidin-4-yl)prop-1-yn-1-yl)pyridin-4-yl)oxy)-3-fluorophenyl)-4-(4-fluorophenyl)-2-methyl-3,5-dioxo-2,3,4,5-tetrahydro-1,2,4-triazine-6-carboxamide], for which the IC50 with PC9/ER cells (setting [1]) is < 10 µM; with HCC827/GR cells (setting [1]), < 1 µM; in the experiment with HCC827/ER cells (setting [2]), < 10 µM; in the experiment on HCC827/OR cells (setting [1]), < 10 µM.
Turning to `CN(C)C(=O)Cn1cc(C(=O)Nc2ccc(Oc3ccnc(N)c3C#CC(C)(C)N3CCNCC3)c(F)c2)c(=O)n(-c2ccc(F)cc2)c1=O` [Example 35, N-(4-((2-amino-3-(3-methyl-3-(piperazin-1-yl)but-1-yn-1-yl)pyridin-4-yl)oxy)-3-fluorophenyl)-1-(2-(dimethylamino)-2-oxoethyl)-3-(4-fluorophenyl)-2,4-dioxo-1,2,3,4-tetrahydropyrimidine-5-carboxamide], the IC50 with PC9/ER cells (setting [1]) is > 10 µM; with HCC827/GR cells (setting [1]) it was > 10 µM; in the experiment on HCC827/ER cells (setting [2]) it was < 10 µM; with HCC827/OR cells (setting [1]) it was < 10 µM.
Turning to `COCCN1CCN(C(C)(C)C#Cc2c(Oc3ccc(NC(=O)c4cn(C(C)C)c(=O)n(-c5ccc(F)cc5)c4=O)cc3F)ccnc2N)CC1` [Example 20, N-(4-(2-amino-3-(3-(4-(2-methoxyethyl)piperazin-1-yl)-3-methylbut-1-ynyl)pyridin-4-yloxy)-3-fluorophenyl)-3-(4-fluorophenyl)-1-isopropyl-2,4-dioxo-1,2,3,4-tetrahydropyrimidine-5-carboxamide], the IC50 in the experiment with PC9/ER cells (setting [3]), in the experiment with HCC827/GR cells (setting [3]), with HCC827/ER cells (setting [4]) and in the experiment with HCC827/OR cells (setting [3]) was < 0.01 µM in each case.
For `Cc1noc(C)c1-c1c(Oc2ccc(NC(=O)c3cn(C(C)C)c(=O)n(-c4ccc(F)cc4)c3=O)cc2F)ccnc1N` [Example 11], the IC50 in the experiment on PC9/ER cells (setting [3]), in the experiment with HCC827/GR cells (setting [3]), with HCC827/ER cells (setting [4]) and with HCC827/OR cells (setting [3]) was < 10 µM throughout.
Turning to `CN1CCN(C(C)(C)C#Cc2c(Oc3ccc(NC(=O)c4cn(C5CCOCC5)c(=O)n(-c5ccc(F)cc5)c4=O)cc3F)ccnc2N)CC1` [Example 57, N-(4-(2-amino-3-(3-methyl-3-(4-methylpiperazin-1-yl)but-1-ynyl)pyridin-4-yloxy)-3-fluorophenyl)-3-(4-fluorophenyl)-2,4-dioxo-1-(tetrahydro-2H-pyran-4-yl)-1,2,3,4-tetrahydropyrimidine-5-carboxamide], the IC50 is < 1 µM in the experiment with PC9/ER cells (setting [1]), < 0.1 µM in the experiment with HCC827/GR cells (setting [1]), < 0.1 µM in the experiment with HCC827/ER cells (setting [2]) and < 1 µM in the experiment on HCC827/OR cells (setting [1]).
Regarding `Cc1nc(Cn2cc(C(=O)Nc3ccc(Oc4ccnc(N)c4C#CCC4CCNCC4)c(F)c3)c(=O)n(-c3ccc(F)cc3)c2=O)cs1` [Example 44, N-(4-((2-amino-3-(3-(piperidin-4-yl)prop-1-yn-1-yl)pyridin-4-yl)oxy)-3-fluorophenyl)-3-(4-fluorophenyl)-1-((2-methylthiazol-4-yl)methyl)-2,4-dioxo-1,2,3,4-tetrahydropyrimidine-5-carboxamide], the IC50 is < 1 µM in the experiment on PC9/ER cells (setting [1]), < 0.1 µM in the experiment on HCC827/GR cells (setting [1]), < 1 µM with HCC827/ER cells (setting [2]) and < 1 µM in the experiment on HCC827/OR cells (setting [1]).
